In US6147097A, “Imidazole derivatives as anti-HIV agents” (Shionogi & Co., Ltd., priority 1994, dated 2000):
In brackets after ≈: the same amount, converted by molar mass. Read-outs that look alike come from different tables or passages of the source.

Experiments:
[1] = test system: HIV (HTLV-IIIB strain); experiment: microbe, parasite or virus in culture; type: cell-based; conditions: Human immunodeficiency virus 1, IIIB, MT4, 120 h
How it was run: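 Protection from virus was read as viable-cell MTT conversion to formazan after 5 days at 37° C. The cultures contained MT-4 cells (3.5×10^4/well), compound dilutions and 60 pfu HIV per well.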

[2] = cytotoxicity in MT-4 cells (MTT, culture medium in place of HIV); type: cell-based; conditions: human
How it was run: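 Uninfected readout: compound-treated MT-4 cultures, 3.5×10^4 cells/well, received medium in place of virus and were kept 5 days at 37° C. Viability measured by 1 h MTT reduction, solubilized formazan read at 560/690 nm relative to control wells.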

[3] = molecular target: T1, purified recombinant HIV-1 reverse transcriptase (Human immunodeficiency virus type 1 group M subtype B, UniProt P04585); experiment: reverse transcriptase inhibition, poly(rA)/(dT) template primer, [3H]dTTP uptake; type: biochemical
T1 construct: purified recombinant HIV-1 reverse transcriptase; made in house; host or cells: Escherichia coli
How it was run: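 Inhibition reported as percent reduction of [3H]dTTP incorporation relative to solvent control, after 1 h at 37 °C at pH 8.3. Recombinant RT from E. coli, poly(rA) template with oligo(dT) primer, 4 μM unlabeled dTTP as substrate; product collected on DEAE filter mats.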

[4] = MT-4 cells, 60 pfu HIV per well, 37° C., 5 days, MTT, Tables 1 and 2, read-out: EC50
[5] = MT-4 cells, no virus, 37° C., 5 days, MTT, Table 3, read-out: CC50

| SMILES | EC50 [1, 4] | CC50 at 120 h [2, 5] | IC50 [3] | EC50 [1] | CC50 at 120 h ([2]; mt-4 cells) |
| --- | --- | --- | --- | --- | --- |
| CCn1c(CO)nc(C(C)C)c1Sc1cc(Cl)cc(Cl)c1 [Compound I-25, 2-[5-(3,5-dichlorophenylthio)-1-ethyl-4-isopropyl-1H-imidazol-2-yl]methanol] | 0.004 µg/mL (≈ 0.0116 µM) | 10 to 100 µg/mL (≈ 29 to 290 µM) | 1390 nM | – | – |
| CCCn1c(CO)nc(C(C)C)c1Sc1cc(Cl)cc(Cl)c1 [Compound I-26, [5-(3,5-dichlorophenylthio)-4-isopropyl-1-n-propyl-1H-imidazol-2-yl]methanol] | – | 10 to 100 µg/mL (≈ 27.8 to 278 µM) | 2530 nM | 0.004 to 0.008 µg/mL (≈ 0.0111 to 0.0223 µM) | – |
| CC(C)c1nc(CN)n(Cc2ccncc2)c1Sc1cc(Cl)cc(Cl)c1 [I-95', 2-aminomethyl-5-(3,5-dichlorophenylthio)-4-isopropyl-1-(pyridin-4-yl)methyl-1H-imidazole] | 0.005 µg/mL (≈ 0.0123 µM) | 6.3 to 12.5 µg/mL (≈ 15.5 to 30.7 µM) | 1180 nM | – | – |
| CC(C)c1nc(CN)n(C)c1Cc1cc(Cl)cc(Cl)c1 [Compound I-101, 2-aminomethyl-5-(3,5-dichlorobenzyl)-4-isopropyl-1-methyl-1H-imidazole] | 1 µg/mL (≈ 3.2 µM) | 10 to 100 µg/mL (≈ 32 to 320 µM) | 80700 nM | – | – |
| CC(C)c1nc(COC(N)=O)n(Cc2ccc(=O)[nH]c2)c1Sc1cc(Cl)cc(Cl)c1 [Compound I-131, 2-carbamoyloxymethyl-5-(3,5-dichlorophenylthio)-1-(6-oxo-1,6-dihydro-pyridin-3-yl)methyl-4-isopropyl-1H-imidazoles] | 0.003 µg/mL (≈ 0.00642 µM) | – | 2780 nM | – | 38.8 µg/mL (≈ 83 µM) |
| CC(C)c1nc(CO)n(Cc2ccccc2)c1Sc1cccc(Cl)c1 [Compound I-20, [1-benzyl-5-(3-chlorophenylthio)-4-isopropyl-1H-imidazol-2-yl]methanol] | 0.008 µg/mL (≈ 0.0215 µM) | 6.3 to 12.5 µg/mL (≈ 16.9 to 33.5 µM) | 5630 nM | – | – |
| CC(C)c1nc(CCO)n(Cc2ccccc2[N+](=O)[O-])c1Sc1cc(Cl)cc(Cl)c1 [Compound 126c, 5-(3,5-Dichlorophenylthio)-2-(2-hydroxyethyl)-4-isopropyl-1-o-nitrobenzyl-1H-imidazole] | 0.13 µg/mL (≈ 0.279 µM) | – | 60900 nM | – | 6.3 µg/mL (≈ 13.5 µM) |
| CCCn1c(CO)nc(C(C)C)c1Sc1cccc([N+](=O)[O-])c1 [Compound I-24, [4-isopropyl-5-(3-nitrophenylthio)-1-n-propyl-1H-imidazol-2-yl]methanol] | 0.008 µg/mL (≈ 0.0239 µM) | 25 µg/mL (≈ 74.5 µM) | 2980 nM | – | – |
| CCn1c(CCOCc2ccccc2)nc(C(C)C)c1Sc1cc(Cl)cc(Cl)c1 [Compound 122a] | 0.13 µg/mL (≈ 0.289 µM) | – | 42300 nM | – | 6.3 µg/mL (≈ 14 µM) |
| Cc1nc(C(C)C)c(Sc2cccc(Cl)c2)n1C [Compound I-3, 5-(3-chlorophenylthio)-1,2-dimethyl-4-isopropylimidazole] | 0.03 µg/mL (≈ 0.107 µM) | 12.5 µg/mL (≈ 44.5 µM) | 3560 nM | – | – |
| COC(=O)NCc1nc(C(C)C)c(Sc2cc(Cl)cc(Cl)c2)n1C [Compound I-91, 5-(3,5-dichlorophenylthio)-4-isopropyl-1-methyl-2-methoxycarbonylaminomethyl-1H-imidazole] | 0.06 µg/mL (≈ 0.155 µM) | 6.3 to 12.5 µg/mL (≈ 16.2 to 32.2 µM) | 876 nM | – | – |
| CC(C)c1nc(CO)n(Cc2cccc3ccccc23)c1Sc1cc(Cl)cc(Cl)c1.Cl [Compound I-120, 5-(3,5-dichlorophenylthio)-2-hydroxymethyl-4-isopropyl-1-(1-naphthylmethyl)-1H-imidazole hydrochloride] | 0.13 µg/mL | – | 99600 nM | – | 100 µg/mL |
| CC(C)c1nc(COC(N)=O)n(C)c1Sc1cc(Cl)cc(Cl)c1 [Compound I-41, 2-carbamoyloxymethyl-5-(3,5-dichlorophenylthio)-4-isopropyl-1-methyl-1H-imidazole] | – | – | 1340 nM | 0.016 µg/mL (≈ 0.0427 µM) | 8.5 µg/mL (≈ 22.7 µM) |
| CC(C)c1nc(CCOC(N)=O)n(CCOC(N)=O)c1Sc1cc(Cl)cc(Cl)c1 [Compound I-147, 1,2-di-(2-carbamoyloxyethyl)-5-(3,5-dichlorophenylthio)-4-isopropyl-1H-imidazole] | 0.005 µg/mL (≈ 0.0108 µM) | – | 4330 nM | – | 50 to 100 µg/mL (≈ 108 to 217 µM) |
| CC(C)c1nc(COC(N)=O)n(Cc2ccccc2)c1Sc1cccc([N+](=O)[O-])c1 [Compound I-47, 1-benzyl-2-carbamoyloxymethyl-4-isopropyl-5-(3-nitrophenylthio)-1H-imidazole] | – | 6.3 to 12.5 µg/mL (≈ 14.8 to 29.3 µM) | 2300 nM | 0.002 µg/mL (≈ 0.00469 µM) | – |
| CC(C#N)c1nc(COC(N)=O)n(C)c1Sc1cccc(Cl)c1 (stereo not drawn) [Compound I-98, 2-[2-carbamoyloxymethyl-5-(3-chlorophenylthio)-1-methyl-1H-imidazol-4-yl]propiononitrile] | – | 10 to 100 µg/mL (≈ 28.5 to 285 µM) | 105000 nM | 1 µg/mL (≈ 2.85 µM) | – |

| SMILES | EC50 [1, 4] | CC50 at 120 h [2, 5] | IC50 [3] | EC50 [1] | CC50 at 120 h ([2]; mt-4 cells) |
| --- | --- | --- | --- | --- | --- |
| Cc1cc(C)cc(Sc2c(C(C)C)nc(C=O)n2C)c1 [Compound I-6, 5-(3,5-dimethylphenylthio)-4-isopropyl-1-methyl-1H-imidazole-2-carbaldehyde] | 0.03 to 0.06 µg/mL (≈ 0.104 to 0.208 µM) | 10 µg/mL (≈ 34.7 µM) | 127000 nM | – | – |
| Cc1cc(C)cc(Sc2c(C(C)C)nc(CO)n2C)c1 [Compound I-9, [5-(3,5-dimethylphenylthio)-4-isopropyl-1-methyl-1H-imidazol-2-yl]methanol] | 0.008 µg/mL (≈ 0.0275 µM) | 10 µg/mL (≈ 34.4 µM) | 8260 nM | – | – |
| CC(C)c1c(Sc2cc(Cl)cc(Cl)c2)nc(CO)n1C [Compound I-39, [4-(3,5-dichlorophenylthio)-5-isopropyl-1-methyl-1H-imidazol-2-yl]methanol] | 1 to 10 µg/mL (≈ 3.02 to 30.2 µM) | 10 to 100 µg/mL (≈ 30.2 to 302 µM) | 198000 nM | – | – |
| CC(C)c1nc(CCO)n(Cc2ccncc2)c1Sc1cc(Cl)cc(Cl)c1 [Compound 123b, 2-[5-(3,5-dichlorophenylthio)-4-isopropyl-1-(pyridin-4-ylmethyl)-1H-imidazol-2-yl]ethanol] | 0.003 µg/mL (≈ 0.0071 µM) | – | 355 nM | – | 12.5 to 25 µg/mL (≈ 29.6 to 59.2 µM) |
| C=CCn1c(CO)nc(C(C)C)c1Sc1cc(Cl)cc(Cl)c1 [Compound I-19, [1-allyl-5-(3,5-dichlorophenylthio)-4-isopropyl-1H-imidazol-2-yl]methanol] | – | 10 to 100 µg/mL (≈ 28 to 280 µM) | 2020 nM | 0.004 to 0.008 µg/mL (≈ 0.0112 to 0.0224 µM) | – |
| CCn1c(CO)nc(C(C)C)c1Sc1cc(F)cc(F)c1 [Compound I-36, [5-(3,5-difluorophenylthio)-1-ethyl-4-isopropyl-1H-imidazol-2-yl]methanol] | – | 10 to 100 µg/mL (≈ 32 to 320 µM) | 576 nM | 0.002 µg/mL (≈ 0.0064 µM) | – |
| CNC(=O)OCc1nc(C(C)C)c(Sc2cc(Cl)cc(Cl)c2)n1C [Compound I-43, 5-(3,5-dichlorophenylthio)-4-isopropyl-1-methyl-2-(N-methylcarbamoyl)oxymethyl-1H-imidazole] | 0.25 µg/mL (≈ 0.644 µM) | 1 to 10 µg/mL (≈ 2.58 to 25.8 µM) | 13600 nM | – | – |
| CC(C)c1nc(CO)n(Cc2ccccc2)c1Sc1cc(Cl)cc(Cl)c1 [Compound I-16, [1-benzyl-5-(3,5-dichlorophenylthio)-4-isopropyl-1H-imidazol-2-yl]methanol] | 0.008 to 0.016 µg/mL (≈ 0.0196 to 0.0393 µM) | 12.5 to 25 µg/mL (≈ 30.7 to 61.4 µM) | 3680 nM | – | – |
| CCn1c(CCCOC(N)=O)nc(C(C)C)c1Sc1cc(Cl)cc(Cl)c1 [Compound I-149, 2-(3-carbamoyloxypropyl)-5-(3,5-dichlorophenylthio)-1-ethyl-4-isopropyl-1H-imidazole] | 0.01 µg/mL (≈ 0.024 µM) | – | 769 nM | – | 6.3 µg/mL (≈ 15.1 µM) |
| CC(C)c1nc(CCCOC(N)=O)n(C)c1Sc1cc(Cl)cc(Cl)c1 [Compound I-148, 2-(3-carbamoyloxypropyl)-5-(3,5-dichlorophenylthio)-4-isopropyl-1-methyl-1H-imidazole] | 0.005 to 0.01 µg/mL (≈ 0.0124 to 0.0249 µM) | – | 895 nM | – | 6.3 to 12.5 µg/mL (≈ 15.7 to 31.1 µM) |
| CC(C)c1nc(CO)n(C)c1Sc1cccc(Cl)c1 [Compound I-13, [5-(3-chlorophenylthio)-4-isopropyl-1-methyl-1H-imidazol-2-yl]methanol] | 0.06 µg/mL (≈ 0.202 µM) | 25 µg/mL (≈ 84.2 µM) | 2700 nM | – | – |
| CC(C)c1nc(CCO)n(C)c1Sc1cc(Cl)cc(Cl)c1 [Compound I-81a, 2-[5-(3,5-dichlorophenylthio)-4-isopropyl-1-methyl-1H-imidazol-2-yl]ethanol] | – | 12.5 µg/mL (≈ 36.2 µM) | 405 nM | 0.001 µg/mL (≈ 0.0029 µM) | – |
| CC(C)c1nc(CCCO)n(Cc2ccncc2)c1Sc1cc(Cl)cc(Cl)c1 [Compound 137c, 3-(5-(3,5-dichlorophenylthio)-4-isopropyl-1-(pyridin-4-ylmethyl)-1H-imidazol-2-yl)-propan-1-ol] | 0.003 to 0.005 µg/mL (≈ 0.00687 to 0.0115 µM) | – | 710 nM | – | 6.3 to 12.5 µg/mL (≈ 14.4 to 28.6 µM) |
| CC(C)c1nc(CN)n(CC(F)(F)F)c1Sc1cc(Cl)cc(Cl)c1 [Compound I-76, 2-aminomethyl-5-(3,5-dichlorophenylthio)-4-isopropyl-1-(2,2,2-trifluoroethyl)-1H-imidazole] | 0.016 µg/mL (≈ 0.0402 µM) | 6.3 to 12.5 µg/mL (≈ 15.8 to 31.4 µM) | 8790 nM | – | – |
| CCn1c(COC(N)=O)nc(C(C)C)c1Sc1cc(F)cc(F)c1 [Compound I-58, 2-carbamoyloxymethyl-5-(3,5-difluorophenylthio)-1-ethyl-4-isopropyl-1H-imidazole] | – | 10 to 100 µg/mL (≈ 28.1 to 281 µM) | 422 nM | 0.002 µg/mL (≈ 0.00563 µM) | – |
| CC(C)c1nc(CO)n(CCO)c1Sc1cc(Cl)cc(Cl)c1 [Compound 119b, 2-(5-(3,5-dichlorophenyl-thio)-2-hydroxymethyl-4-isopropyl-1H-imidazol-1-yl)ethanol] | < 0.008 µg/mL | – | 1720 nM | – | 12.5 to 25 µg/mL (≈ 34.6 to 69.2 µM) |
